# Assay results from publication PMC7377361, “Pressurized DNA state inside herpes capsids—A novel antiviral target” (PLoS Pathogens, 2020).
# Where no end group is shown, it is not given here.
# System: DNA packaged in HSV-1 virion
# Assay: SAXS of HSV-1 virions with added compound
# Conditions: HSV-1 virions in TM-buffer, 37°C
# Description: In the third SAXS screening step, we added the selected compounds to whole virions (enveloped capsids) in TM-buffer to verify that the compounds penetrate the lipid envelope, tegument protein layer, and capsid wall. […] Both C-capsids and virions have a well-resolved X-ray scattering peak corresponding to diffraction from packaged DNA[60] used for ds determination. […] During HSV-1 replication, it takes approximately 1 h for HSV-1 to adsorb to a cell surface and an additional 2–4 h for viral capsids to be transported, once fused with a cell membrane, to a cell nucleus where DNA is ejected from capsids. [HSV-1 replication dynamics in cell culture were verified separately and were also verified elsewhere[41]]. […] Compound concentrations in this SAXS measurements of virions were the same as in the SAXS measurements of C-capsids above, with virion concentration of 10^13 pfu/mL.
# Vero cells were infected with an HSV-1 KOS strain overnight (21 h at 37°C) at a MOI of 0.1 PFU per cell. […] The concentrations of the compounds added to induce DNA condensation were calculated as described above.
# All SAXS measurements of viral capsids were conducted at a concentration of 10^13 viral particles per mL (the highest technically achievable capsid concentration). […] Samples were measured in the temperature range of 15–37°C, and the sample temperature was controlled with a Peltier device with ± 0.5°C accuracy. […]
row,Molecule,DNA-DNA interaxial spacing ds
1,RRRRR [Arg^5+],below 31 Å
2,NCCCN(CCCN)CCCCN(CCCN)CCCN [DAB-Am-4],below 31 Å
